Experimental findings from ChEMBL document CHEMBL1201862, “PubChem BioAssay data set” (2004) are described below.

Some test systems named below: EKVX; COLO 205; MDA-MB-231; M14; NCI-H226; SW-620; SK-MEL-5; SR; OVCAR-4; SNB-19; PC-3; TK-10; UACC-62; SF-268; CAKI-1; RXF 393; SK-OV-3; NCI-H460; SNB-75; U-251.
Holding throughout (test): growth of human tumour cells (NCI), 48 h

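Method: 48-hour compound exposure of cells in 96-well plates, five concentrations, linear interpolation of endpoints. Abbreviation: GI50, concentration required for 50% inhibition of growth.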 Calls of active or inactive are those of the source. Rule as the data show it: active = GI50 up to about 1.1 µM and inactive = higher.

On to `COc1ccc2[nH]c3c4c(ccc3c2c1)C(=O)C=CC4=O`, for which the GI50 in the test on EKVX was 16.4 µM (inactive); with COLO 205, 5.3 µM (inactive); in the test on MDA-MB-231, 17.4 µM (inactive); in the test on M14, 10 µM (inactive); in the test on NCI-H226, 21.6 µM (inactive); in the test with SW-620, 2.39 µM (inactive). Besides, the GI50 was 18.9 µM (inactive) in the test on SK-MEL-5; 0.333 µM (active) in the test on SR; 15 µM (inactive) in the test with OVCAR-4; 40.5 µM (inactive) in the test on SNB-19; 18.7 µM (inactive) in the test on PC-3; 14.6 µM (inactive) in the test with TK-10. For the same compound, the GI50 with UACC-62 is 16.7 µM (inactive); in the test with SF-268 it was 17.1 µM (inactive); in the test on CAKI-1, 9.25 µM (inactive); with RXF 393, 2.48 µM (inactive); with SK-OV-3, 43.4 µM (inactive); in the test on NCI-H460, 24.8 µM (inactive). Further, the values for the GI50 in the test with SNB-75 and with U-251 were 18.8 µM (inactive) and 17.1 µM (inactive), respectively.
For the compound `COc1cc2nc(-c3cccs3)[nH]c(=O)c2cc1OC`, the GI50 was > 100 µM (inactive) in the test on EKVX; > 100 µM (inactive) in the test with COLO 205; 23.2 µM (inactive) in the test with MDA-MB-231; > 100 µM (inactive) with M14; > 100 µM (inactive) with NCI-H226; > 100 µM (inactive) in the test with SW-620. Also, the GI50 was > 100 µM (inactive) in the test with SK-MEL-5; 13.8 µM (inactive) with SR; > 100 µM (inactive) in the test on OVCAR-4; > 100 µM (inactive) with SNB-19; > 100 µM (inactive) in the test with PC-3; > 100 µM (inactive) in the test with TK-10. The GI50 with UACC-62, in the test on SF-268, with CAKI-1, with RXF 393, in the test on SK-OV-3 and in the test with NCI-H460 was > 100 µM (inactive) throughout. For the same compound, the GI50 was > 100 µM (inactive) with SNB-75 and 61.7 µM (inactive) in the test with U-251.
`CC1(C)N=c2c(ncn2Cc2ccccc2)=C(C(N)=O)N1`: the GI50 in the test on EKVX, in the test with COLO 205, with MDA-MB-231, in the test on M14, with NCI-H226 and in the test on SW-620 was > 100 µM (inactive) each time. The GI50 in the test on SK-MEL-5, in the test on SR, with OVCAR-4, with SNB-19, in the test with PC-3 and in the test with TK-10 was > 100 µM (inactive) in each case. Moreover, the GI50 with UACC-62, with SF-268, in the test on CAKI-1, with RXF 393, in the test with SK-OV-3 and with NCI-H460 was > 100 µM (inactive) each time. In addition, the GI50 in the test on SNB-75 and in the test on U-251 was > 100 µM (inactive) each time.
For the compound `COc1cc2cc(C(=O)N3CC(CCl)c4c3cc(NC(=O)OCc3ccc([N+](=O)[O-])cc3)c3ccccc43)[nH]c2c(OC)c1OC` (stereo not given), the GI50 in the test on EKVX was 43 µM (inactive); with COLO 205, > 100 µM (inactive); in the test with MDA-MB-231 it was 44.9 µM (inactive); in the test with M14, 29 µM (inactive); in the test on NCI-H226 it was > 100 µM (inactive); in the test with SW-620, 28.2 µM (inactive). For the same compound, the GI50 is 46.7 µM (inactive) in the test on SK-MEL-5; 0.0432 µM (active) in the test on SR; > 100 µM (inactive) in the test with OVCAR-4; > 100 µM (inactive) in the test on SNB-19; > 60 µM (inactive) in the test with PC-3; 0.327 µM (active) with TK-10. The GI50 is > 38 µM (inactive) in the test with UACC-62; 24.6 µM (inactive) in the test on SF-268; 0.153 µM (active) in the test with CAKI-1; 14 µM (inactive) with RXF 393; < 0.01 µM (active) with SK-OV-3; < 0.0173 µM (active) in the test on NCI-H460. The values for the GI50 in the test with SNB-75 and with U-251 were 20.5 µM (inactive) and 38.5 µM (inactive), respectively.
On to `Nc1cccc(C#Cc2cccc(C#Cc3cccc(N)n3)n2)n1`, for which the GI50 in the test on EKVX, in the test with COLO 205, in the test with MDA-MB-231, in the test on M14, with NCI-H226 and with SW-620 was > 100 µM (inactive) in each case. Further, the GI50 with SK-MEL-5 is 47.4 µM (inactive); in the test on SR, 14 µM (inactive); with OVCAR-4 it was > 100 µM (inactive); in the test with SNB-19, > 100 µM (inactive); in the test on PC-3, > 100 µM (inactive); with TK-10 it was > 100 µM (inactive). Also, the GI50 with UACC-62 is > 100 µM (inactive); in the test with SF-268, > 100 µM (inactive); in the test on CAKI-1, > 100 µM (inactive); with RXF 393 it was > 100 µM (inactive); in the test with SK-OV-3, > 100 µM (inactive); with NCI-H460, 37.2 µM (inactive). The GI50 with SNB-75 and in the test on U-251 was > 100 µM (inactive) each time.
`O=C1Nc2c(Cl)cccc2/C1=N/Nc1ccccc1[N+](=O)[O-]`: the GI50 in the test on EKVX was 3.51 µM (inactive); with COLO 205, 81.3 µM (inactive); in the test on MDA-MB-231, 4.97 µM (inactive); in the test on M14, 21.7 µM (inactive); in the test with NCI-H226, 36.1 µM (inactive); in the test on SW-620, 32.7 µM (inactive). Besides, the GI50 is 12.2 µM (inactive) in the test on SK-MEL-5; 4.68 µM (inactive) with SR; 8.81 µM (inactive) in the test on OVCAR-4; 44.3 µM (inactive) in the test with SNB-19; 31.9 µM (inactive) with PC-3; 11.5 µM (inactive) in the test on TK-10. In addition, the GI50 in the test with UACC-62 is 17.5 µM (inactive); in the test with SF-268, 11.4 µM (inactive); in the test on CAKI-1, 11.7 µM (inactive); with RXF 393, 31.9 µM (inactive); in the test with SK-OV-3, 18.8 µM (inactive); with NCI-H460 it was 17.3 µM (inactive). Besides, the GI50 in the test on SNB-75 was 14 µM (inactive); in the test with U-251, 14.2 µM (inactive).
Consider `O=C(/C=C/NC(=O)OCc1ccccc1)OCc1ccccc1`, for which the GI50 in the test on EKVX is > 100 µM (inactive); in the test with COLO 205, > 100 µM (inactive); in the test with MDA-MB-231 it was 28.1 µM (inactive); in the test with M14 it was > 100 µM (inactive); in the test with NCI-H226, > 100 µM (inactive); in the test on SW-620, > 100 µM (inactive). In addition, the GI50 is > 100 µM (inactive) with SK-MEL-5; > 100 µM (inactive) in the test on SR; > 100 µM (inactive) in the test with OVCAR-4; > 100 µM (inactive) in the test with SNB-19; > 100 µM (inactive) in the test with PC-3; 86.7 µM (inactive) with TK-10. Also, the GI50 in the test on UACC-62 is > 100 µM (inactive); with SF-268, > 100 µM (inactive); in the test on CAKI-1, > 100 µM (inactive); in the test with RXF 393, > 100 µM (inactive); in the test on SK-OV-3 it was 32.4 µM (inactive); with NCI-H460, > 100 µM (inactive). For the same compound, the GI50 in the test on SNB-75 was 32.7 µM (inactive); with U-251, > 100 µM (inactive).
`N#Cc1cnn2ccn(C3OC(COC(=O)c4ccccc4)C(OC(=O)c4ccccc4)C3OC(=O)c3ccccc3)c12` (stereo not given): the GI50 in the test on EKVX, in the test with COLO 205, in the test with MDA-MB-231, with M14, in the test with NCI-H226 and in the test with SW-620 was > 21.5 µM (inactive) throughout. The GI50 was > 21.5 µM (inactive) in the test with SK-MEL-5; > 31.6 µM (inactive) in the test on SR; > 21.5 µM (inactive) in the test with OVCAR-4; > 21.5 µM (inactive) in the test on SNB-19; 5.56 µM (inactive) in the test with PC-3; > 31.6 µM (inactive) in the test on TK-10. Moreover, the GI50 was > 21.5 µM (inactive) in the test with UACC-62; > 21.5 µM (inactive) with SF-268; 17.2 µM (inactive) in the test with CAKI-1; > 21.5 µM (inactive) in the test on RXF 393; > 21.5 µM (inactive) in the test with SK-OV-3; > 21.5 µM (inactive) with NCI-H460. The GI50 in the test on SNB-75 was 1 µM (active); in the test with U-251, > 21.5 µM (inactive).
On to `N/C(=N\N=C\c1cc2ccccc2s1)c1cnccn1`, for which the GI50 in the test on EKVX was > 100 µM (inactive); in the test on COLO 205 it was > 100 µM (inactive); in the test with MDA-MB-231, 82.6 µM (inactive); in the test with M14 it was > 100 µM (inactive); in the test on NCI-H226 it was > 100 µM (inactive); in the test on SW-620 it was > 100 µM (inactive). In addition, the GI50 was > 100 µM (inactive) in the test on SK-MEL-5; 6 µM (inactive) in the test on SR; > 100 µM (inactive) in the test with OVCAR-4; 88.3 µM (inactive) in the test on SNB-19; 92.3 µM (inactive) in the test on PC-3; 87.7 µM (inactive) with TK-10. The GI50 in the test on UACC-62, in the test with SF-268, in the test on CAKI-1, in the test with RXF 393, in the test with SK-OV-3 and with NCI-H460 was > 100 µM (inactive) in each case. Moreover, the GI50 is 29.3 µM (inactive) in the test on SNB-75 and > 100 µM (inactive) with U-251.
With `CC(C)[Si](OC1=C(C(=O)N(C)c2cccc(Cl)c2)CCCC1)(C(C)C)C(C)C`, the GI50 was 15.6 µM (inactive) with EKVX; 15.1 µM (inactive) in the test with COLO 205; 16 µM (inactive) with MDA-MB-231; 15.1 µM (inactive) in the test on M14; 15.8 µM (inactive) with NCI-H226; 13.6 µM (inactive) in the test on SW-620. Further, the GI50 in the test with SK-MEL-5 is 14.1 µM (inactive); in the test on SR it was 9.16 µM (inactive); with OVCAR-4, 12.7 µM (inactive); with SNB-19, 16.6 µM (inactive); with PC-3, 8.61 µM (inactive); in the test on TK-10, 15.4 µM (inactive). Further, the GI50 with UACC-62 was 14.7 µM (inactive); with SF-268, 13.3 µM (inactive); in the test with CAKI-1 it was 13.2 µM (inactive); in the test on RXF 393, 3.4 µM (inactive); in the test on SK-OV-3, 16.6 µM (inactive); in the test on NCI-H460, 14.1 µM (inactive). Further, the figures for the GI50 in the test with SNB-75 and with U-251 were 10.4 µM (inactive) and 13.8 µM (inactive), respectively.
